Measured values as given in patent US8674097B2, “Quinoxalinedione derivatives useful as activators of AMPK-activated protein kinase” (Merck Patent GmbH, priority 2008, dated 2014).

Key:
[1] = target: T1, AMPK protein (recombinant α1β1γ2) (Homo sapiens, UniProt Q13131+Q9UGJ0+Q9Y478); test: AMPK enzymatic activity (Delfia, AMARA peptide); assay type: biochemical; settings: compound 30 μM vs AMP 30 μM; 125 μM ATP; direct activator if ratio is 90% or higher
T1 construct: made in house; host or cells: E. coli
Protocol: The following biological test allows the determination of the efficacy of such compounds of formula (I) onto AMPK protein (recombinant α1β1γ2).
Human recombinant AMPK enzyme was expressed in E. Coli and was reactivated in vitro by LKB1 prior to enzyme activity determination. AMPK enzyme activities were assayed by using A Delfia technology. AMPK enzyme activities were carried out in microtiter plates (50 mM Hepes buffer, pH 7.4 with 125 μM ATP respectively) in the presence of a synthetic peptide substrate (AMARAASAAALARRR, the “AMARA” peptide) and activators in serial dilutions. Reactions were initiated by the addition of AMPK (50-100 ng). Following mixing, the plates were incubated for 30 min at room temperature. Enzyme activity was assayed by using an anti-phosphoserine antibody to measure the quantity of phosphate incorporated into the AMARAA.
Ratio between the % of control (basal activity) of compound of formula (I) at 30 μM and the % of control (basal activity) of AMP (natural […]) at 30 μM.
Compounds of formula (I) are considered as direct activator of AMPK if the ratio is 90% or higher.

ob/ob and db/db mice = settings: 8 day AICAR administration; cited from earlier work

T1 sequence (Q13131 whole entry): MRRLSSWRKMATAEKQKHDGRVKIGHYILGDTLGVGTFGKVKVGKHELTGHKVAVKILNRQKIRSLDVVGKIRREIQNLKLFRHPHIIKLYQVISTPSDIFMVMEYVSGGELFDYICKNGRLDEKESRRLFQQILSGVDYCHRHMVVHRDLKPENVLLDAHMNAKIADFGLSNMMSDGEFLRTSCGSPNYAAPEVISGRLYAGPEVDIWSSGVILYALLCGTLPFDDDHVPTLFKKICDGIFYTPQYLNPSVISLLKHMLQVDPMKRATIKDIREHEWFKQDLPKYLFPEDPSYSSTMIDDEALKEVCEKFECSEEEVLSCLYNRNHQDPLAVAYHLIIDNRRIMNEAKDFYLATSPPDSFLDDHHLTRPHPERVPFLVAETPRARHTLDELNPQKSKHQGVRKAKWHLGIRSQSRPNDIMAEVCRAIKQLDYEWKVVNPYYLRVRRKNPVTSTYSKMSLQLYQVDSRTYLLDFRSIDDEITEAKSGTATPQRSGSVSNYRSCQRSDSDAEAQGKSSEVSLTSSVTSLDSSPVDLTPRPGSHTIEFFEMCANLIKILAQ
T1 sequence (Q9Y478 whole entry): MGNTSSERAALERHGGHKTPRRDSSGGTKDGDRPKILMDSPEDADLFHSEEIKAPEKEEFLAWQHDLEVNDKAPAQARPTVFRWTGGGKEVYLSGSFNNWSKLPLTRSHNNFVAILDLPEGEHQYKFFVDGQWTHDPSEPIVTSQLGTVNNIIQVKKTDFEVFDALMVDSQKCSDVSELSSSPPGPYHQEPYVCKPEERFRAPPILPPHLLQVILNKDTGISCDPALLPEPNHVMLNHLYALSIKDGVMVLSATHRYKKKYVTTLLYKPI
T1 sequence (Q9UGJ0 whole entry): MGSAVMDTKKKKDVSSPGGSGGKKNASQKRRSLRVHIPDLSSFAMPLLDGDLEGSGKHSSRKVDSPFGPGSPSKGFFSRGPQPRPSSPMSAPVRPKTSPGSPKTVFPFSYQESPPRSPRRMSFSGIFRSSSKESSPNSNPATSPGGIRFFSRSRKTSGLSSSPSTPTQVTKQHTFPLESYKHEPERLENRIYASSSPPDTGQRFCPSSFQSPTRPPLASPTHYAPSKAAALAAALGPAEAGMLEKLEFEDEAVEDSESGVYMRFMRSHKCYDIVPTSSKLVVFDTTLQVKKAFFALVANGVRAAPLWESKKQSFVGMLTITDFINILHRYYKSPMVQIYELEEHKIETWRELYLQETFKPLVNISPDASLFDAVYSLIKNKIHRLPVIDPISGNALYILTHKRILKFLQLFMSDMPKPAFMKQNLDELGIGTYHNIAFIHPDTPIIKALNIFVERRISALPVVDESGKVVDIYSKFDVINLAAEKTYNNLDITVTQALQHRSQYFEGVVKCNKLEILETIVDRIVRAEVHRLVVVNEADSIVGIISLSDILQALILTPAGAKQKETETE

| SMILES | Activity: ratio between the % of control (basal activity) of compound at 30 μM and the % of control (basal activity) of AMP at 30 μM [1] [%] | reduction of blood glucose (ob/ob and db/db mice) [%] |
| --- | --- | --- |
| CC(=O)Oc1cccc2[nH]c(=O)c(=O)[nH]c12 [Acetic acid 2,3-dioxo-1,2,3,4-tetrahydro-quinoxalin-5-yl ester] | 120 | – |
| O=c1[nH]c2cccc(O)c2[nH]c1=O [5-hydroxy-1,4-dihydroquinoxaline-2,3-dione] | 130 | – |
| NC(=O)c1ncn([C@@H]2O[C@H](CO)[C@@H](O)[C@H]2O)c1N [AICAR] | – | 35 |
